Publication PMC10850501 (Nature Communications, 2024)
Entries after “also recorded” stand apart in the source; their conditions may differ. Peptide text beside a SMILES is read from it.

Experiments:
SARS-CoV-2 Spike-RBD = SARS-CoV-2 Spike-RBD (Severe acute respiratory syndrome coronavirus 2, UniProt P0DTC2); assay type: binding
[1] = Subcutaneous bolus biocompatibility; assay type: in vivo, rat (female Wistar)
Description: The peptide hydrogel was prepared at 10 mg/mL in sterile saline and aspirated in sterile 1 mL syringes, with careful attention to avoid air bubbles. Female Wistar rats (225–250 g, 8–12 weeks old) were used for dorsal subcutaneous implantation. The rats were anesthetized using 2.5% isoflurane and […], after which the back of the rat’s hair was shaved and sterilized with 3 alternating applications of isopropanol and betadine. 200 µL boluses of the peptide hydrogel were injected with a 25 G needle at n = 4 for a time point of 7 days. After the time point, the animals were sacrificed, and the implant regions were collected and fixed overnight in 10% buffered formalin. The Rutgers Cancer Institute of New Jersey histology core processed the paraffin-embedded samples for histological evaluation after staining with hematoxylin and eosin and Masson’s Trichrome. Samples were also fixed in glutaraldehyde and formaldehyde, processed to eponate blocks, and sectioned with an ultramicrotome for electron microscopy imaging (above)[30],[76],[87].
Female Wistar rats (225–250 g, 8–12 weeks old) were observed and acclimatized for 2 weeks prior to running the studies. They were housed in a controlled environment with temperature at […] and 40–70% humidity. They were kept in an alternating 12-hour light/dark cycle, and food, and water was provided as pellets ad libitum. Female Wistar Rats were used for the pharmacokinetics and the drug clearance analysis from the blood. The two hydrogels (ESBP2 and ESBP3) at 10 mg/ml concentration were injected into the rats via the lateral tail vein. For subcutaneous implants, the substance was injected between the shoulder blades and above the lumbar vertebrae, 200 μL each, using a 25-gauge needle. The hydrogel bolus was prepared with 0.9% saline and was injected within 1–2 minutes. The volume injected was approximately 1% of the total body weight of the rat, which was calculated prior to the dosing. The initial blood draw was performed for baseline, and the subsequent blood collection was performed from the lateral vein using 25 g butterfly needles.

[2] = Intranasal repeat dose tolerability; assay type: in vivo, mouse (female C57BL/6); settings: 25µL / nostril x 2 daily for 10 days in mice; histopathology H&E, MT
Description: Female C57BL/6 mice (15–20 g, 8–12 weeks old) were used for intranasal dosing of the peptide. As mentioned previously, 25 µl of hydrogels were injected into each of the nasal cavities twice daily at an interval of 8 hours for 10 days consecutively. The organs were harvested at the final time point, and sectioning was performed for histological evaluation. The plasma was also collected for quantifying peptide clearance in the bloodstream of the animal model.

**Q.** Which results are given for `CC[C@H](C)[C@H](NC(=O)[C@H](Cc1ccc(O)cc1)NC(=O)[C@@H](NC(=O)[C@H](CCCCN)NC(=O)[C@H](Cc1ccc(O)cc1)NC(=O)[C@H](CCC(N)=O)NC(=O)CNC(=O)[C@H](CCC(=O)O)NC(=O)[C@H](CC(C)C)NC(=O)[C@H](CO)NC(=O)[C@H](CC(C)C)NC(=O)[C@H](CO)NC(=O)[C@H](CC(C)C)NC(=O)[C@H](CO)NC(=O)[C@H](CC(C)C)NC(=O)[C@H](CO)NC(=O)[C@H](CC(C)C)NC(=O)[C@H](CO)NC(=O)[C@H](CC(C)C)NC(=O)[C@H](CO)NC(=O)[C@H](CCC(=O)O)NC(C)=O)[C@@H](C)O)C(=O)N[C@@H](CC(=O)O)C(=O)N[C@@H](CCCCN)C(=O)N[C@@H](CC(N)=O)C(=O)N[C@@H](CC(N)=O)C(=O)N[C@@H](Cc1c[nH]cn1)C(=O)N[C@@H](Cc1ccc(O)cc1)C(=O)N[C@@H](C)C(=O)N[C@@H](CCC(=O)O)C(=O)N[C@@H](CC(=O)O)C(=O)N[C@@H](CCC(=O)O)C(=O)N[C@@H](CCCNC(=N)N)C(=O)N[C@@H](Cc1ccc(O)cc1)C(=O)N[C@@H](CCCCN)C(N)=O` [ESBP3] (Ac-ESLSLSLSLSLSLEGQYKTYIDKNNHYAEDERYK-NH2)?
**A.** ITC binding to Spike RBD, in words (SARS-CoV-2 Spike-RBD): ESBP3-Spike-binding events; ITC self-assembly, in words (SARS-CoV-2 Spike-RBD): supported spontaneous self-assembly; peptide in plasma after subcutaneous bolus ([1]; 200 µL, 10 mg/mL, once, daily blood draws for 10 days): no detectable ESBP3; subcutaneous bolus tolerability, in words ([1]; 200 µL, 10 mg/mL, once, rats, daily blood draws for 10 days): no significant body weight changes or adverse organ morphology; also recorded: no weight loss or adverse event; histology of Sub-Q implanted boluses (H&E, Masson's Trichrome) ([1]; 7 days): infiltration of boluses with neutrophils/ macrophages; intranasal repeat dosing safety, in words [2]: no significant body weight changes or adverse organ morphology; also recorded: nasal turbinate showing no adverse effects; also recorded: no adverse toxicity
